The source made the active and inactive calls. The rule behind the calls is not given here.
How the values were obtained:
[1] = test system: MX1; experiment: Induction of cell cycle arrest in human MX-1 cells assessed as accumulation of cells at G0/G1 phase incubated for 24 hrs by propidium iodide staining based FACS calibur flow cytometeric analysis; format: functional; conditions: dose 0.5-2 µM
[2] = test system: MX1; experiment: Induction of apoptosis in human MX1 cells assessed as increase in cleaved PARP-1 expression at 0.5 to 2 uM by Western blotting analysis; format: functional, cell-based; conditions: dose 0.5-2 µM
[3] = test system: MDA-MB-231; experiment: Antitumor activity against human MDA-MB-231 cells xenografted in BALBC mouse assessed as inhibition of tumor growth at 150 mg/kg, IG administered every 3 days for 21 days relative to control; format: functional; conditions: MDA-MB-231, po, 504 h, time 21 day, read-out: TGI
[4] = test system: MX1; experiment: Induction of cell cycle arrest in human MX1 cells assessed as decrease in cyclin B1 expression at 0.5 to 2 uM by Western blotting analysis; format: functional, cell-based; conditions: dose 0.5-2 µM, time 24.0 hrs
[5] = test system: MDA-MB-231; experiment: Induction of apoptosis in human MDA-MB-231 cells assessed as viable cells measured at 5 uM after 48 hrs by FITC-Annexin-V and propidium iodide based flow cytometric analysis (reference value: 94.4% ); format: functional; conditions: read-out: Activity
[6] = test system: MX1; experiment: Induction of apoptosis in human MX1 cells assessed as viable cells measured at 1 uM after 48 hrs by FITC-Annexin-V and propidium iodide based flow cytometric analysis (reference value: 88.4%); format: functional; conditions: read-out: Activity

CC1(C)C=Cc2c(c(/C=C/C(=O)NCCOc3no[n+]([O-])c3S(=O)(=O)c3ccccc3)cc3c2[nH]c2ccc(C(C)(C)C)cc23)O1
Activity [1]: Dose-Dependent Effect
Activity [2]: Active
inhibition in vivo at 150 mg/kg [3]: 53.6%
Activity [4]: Active
viability at 5 µM [5]: 47.1%
viability at 1 µM [6]: 43.5%
